Results as given in US20240140957A1, “BRIDGED COMPOUNDS AS KRAS G12D INHIBITOR AND DEGRADER AND THE USE THEREOF” (BeiGene Switzerland GmbH, priority 2021, published 2024).

biological target: GDP-loaded KRAS G12D (Homo sapiens, UniProt P01116, G12D); assay: KRAS G12D Probe Displacement Assay; type: binding; details: KRAS G12D 0.5 nM, biotinylated probe 2 4 nM; Table 6 letters; read-out: KRAS G12D Probe Displacement Assay IC50 (class)
Sequence (P01116 1-188 isoform P01116-2 G12D): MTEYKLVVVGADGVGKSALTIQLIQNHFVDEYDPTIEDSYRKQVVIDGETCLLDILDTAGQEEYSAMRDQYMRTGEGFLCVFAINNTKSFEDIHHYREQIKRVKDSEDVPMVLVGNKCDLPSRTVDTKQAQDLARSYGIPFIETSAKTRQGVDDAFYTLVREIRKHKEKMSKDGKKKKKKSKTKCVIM

IC50, < 50 nM:
Nc1nc2c(-c3c(C(F)(F)F)cc4c(N5C6CCC5CNC6)nc(OC[C@@]56CCCN5C[C@H](F)C6)nc4c3Cl)ccc(F)c2s1 [Example E101, 4-(4-(3,8-diazabicyclo[3.2.1]octan-8-yl)-8-chloro-2-(((2R,7aS)-2-fluorotetrahydro-1H-pyrrolizin-7a(5H)-yl)methoxy)-6-(trifluoromethyl)quinazolin-7-yl)-7-fluorobenzo[d]thiazol-2-amine]
Nc1nc2c(-c3c(C(F)(F)F)cc4c(N5CC6CCC(C5)N6)nc(OC5CCOC5)nc4c3F)ccc(F)c2s1 (stereo not shown) [Example E143]
Cc1cc2[nH]ncc2c(-c2c(Cl)cc3c(N4CC5CCC(C4)N5)nc(OC[C@@]45CCCN4C[C@H](F)C5)nc3c2F)c1Cl [Example E120, 4-(3,8-diazabicyclo[3.2.1]octan-3-yl)-6-chloro-7-(5-chloro-6-methyl-1H-indazol-4-yl)-8-fluoro-2-(((2R,7aS)-2-fluorotetrahydro-1H-pyrrolizin-7a(5H)-yl)methoxy)quinazoline]
Cc1cc(N)nc(-c2c(Cl)cc3c(N4CC5CCC(C4)N5)nc(OCC45COC(C4)C5)nc3c2F)c1C(F)(F)F [Example E224, 6-(2-((2-oxabicyclo[2.1.1]hexan-4-yl)methoxy)-4-(3,8-diazabicyclo[3.2.1]octan-3-yl)-6-chloro-8-fluoroquinazolin-7-yl)-4-methyl-5-(trifluoromethyl)pyridin-2-amine]
Nc1nc2c(-c3c(C(F)(F)F)cc4c(N5CC6CCC(C5)N6)nc(OCC5CCOCC5)nc4c3F)ccc(F)c2s1 [Example E144, 4-(4-(3,8-diazabicyclo[3.2.1]octan-3-yl)-8-fluoro-2-((tetrahydro-2H-pyran-4-yl)methoxy)-6-(trifluoromethyl)quinazolin-7-yl)-7-fluorobenzo[d]thiazol-2-amine]
CC1(COc2nc(N3CC4CCC(C3)N4)c3cc(C(F)(F)F)c(-c4ccc(F)c5sc(N)nc45)c(F)c3n2)CCOC1 (stereo not shown) [Example E181, 4-(4-(3,8-diazabicyclo[3.2.1]octan-3-yl)-8-fluoro-2-((3-methyltetrahydrofuran-3-yl)methoxy)-6-(trifluoromethyl)quinazolin-7-yl)-7-fluorobenzo[d]thiazol-2-amine]
Cc1cc(N)nc(-c2c(Cl)cc3c(N4CC5CCC(C4)N5)nc(OCC4(C#N)CCOCC4)nc3c2F)c1C(F)(F)F [Example E195, 4-(((7-(6-amino-4-methyl-3-(trifluoromethyl)pyridin-2-yl)-4-(3,8-diazabicyclo[3.2.1]octan-3-yl)-6-chloro-8-fluoroquinazolin-2-yl)oxy)methyl)tetrahydro-2H-pyran-4-carbonitrile]
Cc1cc(N)nc(-c2c(Cl)cc3c(N4CC5CCC(C4)N5)nc(OCC4(C)CCC(=O)N4)nc3c2F)c1C(F)(F)F (stereo not shown) [Example E207, 5-(((7-(6-amino-4-methyl-3-(trifluoromethyl)pyridin-2-yl)-4-(3,8-diazabicyclo[3.2.1]octan-3-yl)-6-chloro-8-fluoroquinazolin-2-yl)oxy)methyl)-5-methylpyrrolidin-2-one]
Nc1nc2c(-c3c(C(F)(F)F)cc4c(N5CC6CCC(C5)N6)nc(OCC(O)CO)nc4c3F)ccc(F)c2s1 (stereo not shown) [Example E141, 3-((7-(2-amino-7-fluorobenzo[d]thiazol-4-yl)-4-(3,8-diazabicyclo [3.2.1]octan-3-yl)-8-fluoro-6-(trifluoromethyl)quinazolin-2-yl)oxy)propane-1,2-diol]
N#CC1(COc2nc(N3CC4CCC(C3)N4)c3cc(C(F)(F)F)c(-c4ccc(F)c5sc(N)nc45)c(F)c3n2)CCCC1 [Example E192, 1-(((7-(2-amino-7-fluorobenzo[d]thiazol-4-yl)-4-(3,8-diazabicyclo [3.2.1]octan-3-yl)-8-fluoro-6-(trifluoromethyl)quinazolin-2-yl)oxy)methyl)cyclopentane-1-carbonitrile]
Oc1cc(Cl)c(C(F)(F)F)c(-c2c(Cl)cc3c(N4CC5CCC(C4)N5)nc(OC[C@@]45CCCN4C[C@H](F)C5)nc3c2F)c1 [Example E105, 3-(4-(3,8-diazabicyclo[3.2.1]octan-3-yl)-6-chloro-8-fluoro-2-(((2R,7aS)-2-fluorotetrahydro-1H-pyrrolizin-7a(5H)-yl)methoxy)quinazolin-7-yl)-5-chloro-4-(trifluoromethyl)phenol]
Nc1nc2c(-c3c(C(F)(F)F)cc4c(N5CC6CCC(C5)N6)nc(OCC5CCCCO5)nc4c3F)ccc(F)c2s1 (stereo not shown) [Example E146, 4-(4-(3,8-diazabicyclo[3.2.1]octan-3-yl)-8-fluoro-2-((tetrahydro-2H-pyran-2-yl)methoxy)-6-(trifluoromethyl)quinazolin-7-yl)-7-fluorobenzo[d]thiazol-2-amine]
N#CC1(COc2nc(N3CC4CCC(C3)N4)c3cc(C(F)(F)F)c(-c4ccc(F)c5sc(N)nc45)c(F)c3n2)CCCCC1 [Example E157, 1-(((7-(2-amino-7-fluorobenzo[d]thiazol-4-yl)-4-(3,8-diazabicyclo [3.2.1]octan-3-yl)-8-fluoro-6-(trifluoromethyl)quinazolin-2-yl)oxy)methyl)cyclohexane-1-carbonitrile]
Nc1nc2c(-c3c(C(F)(F)F)cc4c(N5CC6CCC(C5)N6)nc(OC[C@@H]5COCCO5)nc4c3F)ccc(F)c2s1 [Example E219, 4-(2-(((S)-1,4-dioxan-2-yl)methoxy)-4-(3,8-diazabicyclo[3.2.1]octan-3-yl)-8-fluoro-6-(trifluoromethyl)quinazolin-7-yl)-7-fluorobenzo[d]thiazol-2-amine]
CC(CO)COc1nc(N2CC3CCC(C2)N3)c2cc(C(F)(F)F)c(-c3ccc(F)c4sc(N)nc34)c(F)c2n1 (stereo not shown) [Example E142, 3-((7-(2-amino-7-fluorobenzo[d]thiazol-4-yl)-4-(3,8-diazabicyclo [3.2.1]octan-3-yl)-8-fluoro-6-(trifluoromethyl)quinazolin-2-yl)oxy)-2-methylpropan-1-ol]
Nc1nc2c(-c3c(C(F)(F)F)cc4c(N5C6CNCC5C6)nc(OC[C@@]56CCCN5C[C@H](F)C6)nc4c3F)ccc(F)c2s1 [Example E127, 4-(4-(3,6-diazabicyclo[3.1.1]heptan-6-yl)-8-fluoro-2-(((2R,7aS)-2-fluorotetrahydro-1H-pyrrolizin-7a(5H)-yl)methoxy)-6-(trifluoromethyl)quinazolin-7-yl)-7-fluoro benzo[d]thiazol-2-amine]
Nc1nc2c(-c3c(Cl)cc4c(N5CC6CCC(C5)N6)nc(OC[C@@]56CCCN5C[C@H](F)C6)nc4c3F)cc(Cl)cc2s1 [Example E140, 4-(4-(3,8-diazabicyclo[3.2.1]octan-3-yl)-6-chloro-8-fluoro-2-(((2R,7aS)-2-fluorotetrahydro-1H-pyrrolizin-7a(5H)-yl)methoxy)quinazolin-7-yl)-6-chlorobenzo [d]thiazol-2-amine]
Nc1nc2c(-c3c(C(F)(F)F)cc4c(N5CC6CCC(C5)N6)nc(OCC5CCOC5)nc4c3F)ccc(F)c2s1 (stereo not shown) [Example E145, 4-(4-(3,8-diazabicyclo[3.2.1]octan-3-yl)-8-fluoro-2-((tetrahydrofuran-3-yl)methoxy)-6-(trifluoromethyl)quinazolin-7-yl)-7-fluorobenzo [d]thiazol-2-amine]
Nc1nc2c(-c3c(C(F)(F)F)cc4c(N5CC6CCC(C5)N6)nc(OCCC5COC5)nc4c3F)ccc(F)c2s1 [Example E189, 4-(4-(3,8-diazabicyclo[3.2.1]octan-3-yl)-8-fluoro-2-(2-(oxetan-3-yl)ethoxy)-6-(trifluoromethyl)quinazolin-7-yl)-7-fluorobenzo[d]thiazol-2-amine]
CN(C)C(=O)CCNC1C[C@H]2CC[C@@H]1N2c1nc(OC[C@@]23CCCN2C[C@H](F)C3)nc2c(F)c(-c3ccc(F)c4sc(N)nc34)c(C(F)(F)F)cc12 (stereo partly drawn) [Example E99, 3-(((1S,4R)-7-(7-(2-amino-7-fluorobenzo[d]thiazol-4-yl)-8-fluoro-2-(((2R,7aS)-2-fluorotetrahydro-1H-pyrrolizin-7a(5H)-yl)methoxy)-6-(trifluoromethyl)quinazolin-4-yl)-7-azabicyclo [2.2.1]heptan-2-yl)amino)-N,N-dimethyl propanamide]
CO[C@@H]1CC[C@H]1COc1nc(N2CC3CCC(C2)N3)c2cc(C(F)(F)F)c(-c3ccc(F)c4sc(N)nc34)c(F)c2n1 [Example E168, 4-(4-(3,8-diazabicyclo[3.2.1]octan-3-yl)-8-fluoro-2-(((1S,2R)-2-methoxycyclobutyl)methoxy)-6-(trifluoromethyl)quinazolin-7-yl)-7-fluorobenzo[d]thiazol-2-amine]
Nc1nc2c(-c3c(C(F)(F)F)cc4c(N5CC6CCC(C5)N6)nc(OCC5CS(=O)(=O)C5)nc4c3F)ccc(F)c2s1 [Example E171]
Nc1nc2c(-c3c(C(F)(F)F)cc4c(N5CC6CCC(C5)N6)nc(OCC56CC(CO)(C5)C6)nc4c3F)ccc(F)c2s1 [Example E162, (3-(((7-(2-amino-7-fluorobenzo[d]thiazol-4-yl)-4-(3,8-diazabicyclo[3.2.1]octan-3-yl)-8-fluoro-6-(trifluoromethyl)quinazolin-2-yl)oxy)methyl)bicyclo[1.1.1]pentan-1-yl)methanol]
COC(C)(CO)COc1nc(N2CC3CCC(C2)N3)c2cc(Cl)c(-c3nc(N)cc(C)c3C(F)(F)F)c(F)c2n1 (stereo not shown) [Example E233, 3-((7-(6-amino-4-methyl-3-(trifluoromethyl)pyridin-2-yl)-4-(3,8-diazabicyclo[3.2.1]octan-3-yl)-6-chloro-8-fluoroquinazolin-2-yl)oxy)-2-methoxy-2-methyl propan-1-ol]
CN1C[C@H](F)C[C@]1(C)COc1nc(N2C3CNCC2COC3)c2cc(C(F)(F)F)c(-c3ccc(F)c4sc(N)nc34)c(F)c2n1 [Example E122, 4-(4-(3-oxa-7,9-diazabicyclo[3.3.1]nonan-9-yl)-8-fluoro-2-(((2R,4R)-4-fluoro-1,2-dimethylpyrrolidin-2-yl)methoxy)-6-(trifluoromethyl)quinazolin-7-yl)-7-fluorobenzo[d]thiazol-2-amine]
